Patent US9211310B2, “Use of a Chinese medicine composition in preparing medicaments for treating secondary prevention of myocardial infarction” (TASLY PHARMACEUTICAL GROUP CO., LTD, priority 2010, dated 2015)

Test system: patients after acute myocardial infarction
Assay: Angina pectoris score, total and single (frequency/attack times, duration, pain degree, dose of nitroglycerin), same clinical trial
Format: in vivo, human
Design: total angina pectoris score, Md / total angina pectoris score, Mean: scale not given here
Details: for attack times score, patients (%): Baseline; for distribution of total angina pectoris score: Medium, number of patients / distribution of total angina pectoris score: Medium, percentage of patients / distribution of total angina pectoris score: Mild, number of patients / distribution of total angina pectoris score: Mild, percentage of patients / distribution of total angina pectoris score: Severe, number of patients / distribution of total angina pectoris score: Severe, percentage of patients / patients with dose of nitroglycerin score 0 (%) / patients with dose of nitroglycerin score 1 (%) / patients with dose of nitroglycerin score 2 (%) / patients with dose of nitroglycerin score 4 (%) / patients with dose of nitroglycerin score 6 (%) / total angina pectoris score, Md / total angina pectoris score, Mean / change of total angina pectoris score, Md / change of total angina pectoris score, Mean / patients with change of dose of nitroglycerin score 0 (%) / patients with change of dose of nitroglycerin score 1 (%) / patients with change of dose of nitroglycerin score 2 (%) / patients with change of dose of nitroglycerin score 4 (%) / patients with change of dose of nitroglycerin score 6 (%) / patients with change of dose of nitroglycerin score −1 (%) / patients with change of dose of nitroglycerin score −2 (%) / patients with change of dose of nitroglycerin score −3 (%) / patients with change of dose of nitroglycerin score −4 (%) / patients with change of dose of nitroglycerin score −6 (%) / patients with change of dose of nitroglycerin score −5 (%): FAS
Description: In order to better understand the present invention, a multi-center, randomized, double-blind, double-dummy and positive drug controlled trial had been conducted. 3508 patients who were in accordance with the diagnostic standards of AMI for 28 days to 2 years and differentiated as Qi deficiency and blood stagnation syndrome by TCM were studied. 0.5 g Chinese medicine composition prepared by the method of EXAMPLE 1 (Coded as QSYQ) was administrated half an hour after meal, 3 times per day. Aspirine was used as a positive drug. The patients were treated for 1 year and observed for 6 months.
They included the overall survival time, angina pectoris score, TCM symptom score and life quality score, where angina pectoris score, TCM symptom score and life quality score were evaluated at randomization, in 1st, 3rd, 6th, 9th, 12th month after treatment and 18th month after follow-up.
Total angina pectoris score was described on every observation period and the change of observation in comparison with baseline. T-test or Wilcoxon rank sum test were used for inter-group comparison. Grade of total score was evaluated on every observation and Wilcoxon rank sum test was used for inter-group comparison. T-test and Pairing signed rank sum test were used for analyzing the change of total score on every observation between groups in comparison with the baseline.
Single angina pectoris score was depicted on every observation time-point and the change of observation in comparison with baseline. Wilcoxon rank sum test was used for inter-group comparison. Pairing signed rank sum test was used for analyzing the change of total score on every observation between groups in comparison with the baseline.
Total angina pectoris score was described on every observation period and the change of observation in comparison with the baseline. T-test or Wilcoxon rank sum test were used for inter-group comparison. Grade of total score was evaluated on every observation and Wilcoxon rank sum test was used for inter-group comparison. T-test and Pairing signed rank sum test were used for analyzing the change of total score on every observation between groups in comparison with the baseline.
Single angina pectoris score was described on every observation time-point and the change of observation in comparison with baseline. Wilcoxon rank sum test was used for inter-group comparison. Pairing signed rank sum test was used for analyzing the change of total score on every observation between groups in comparison with the baseline.

[1] = 1 month after treatment-baseline
[2] = 3 months after treatment-baseline
[3] = 6 months after treatment-baseline
[4] = 9 months after treatment-baseline

Compound: CC(=O)Oc1ccccc1C(=O)O [Control group, aspirine]
- attack times score, patients (%) (score 1, PP): (8.95%)
- attack times score, patients (%) (score 2, FAS): (53.24%)
- attack times score, patients (%) (score 2, PP): (53.51%)
- attack times score, patients (%) (score 4, FAS): (9.12%)
- attack times score, patients (%) (score 4, PP): (9.55%)
- attack times score, patients (%) (score 6, FAS): (1.03%)
- attack times score, patients (%) (score 6, PP): (1.00%)
- distribution of total angina pectoris score: Medium, number of patients (1 month after treatment): 484
- distribution of total angina pectoris score: Medium, percentage of patients (1 month after treatment): (28.24%)
- distribution of total angina pectoris score: Mild, number of patients (1 month after treatment): 1203
- distribution of total angina pectoris score: Mild, percentage of patients (1 month after treatment): (70.19%)
- distribution of total angina pectoris score: Severe, number of patients (1 month after treatment): 27
- distribution of total angina pectoris score: Severe, percentage of patients (1 month after treatment): (1.58%)
- patients with dose of nitroglycerin score 0 (%) (1 month after treatment): (59.78%)
- patients with dose of nitroglycerin score 1 (%) (1 month after treatment): (0.29%)
- patients with dose of nitroglycerin score 2 (%) (1 month after treatment): (28.94%)
- patients with dose of nitroglycerin score 4 (%) (1 month after treatment): (7.65%)
- patients with dose of nitroglycerin score 6 (%) (1 month after treatment): (3.34%)
- total angina pectoris score, Md (1 month after treatment): 6.00
- total angina pectoris score, Mean (1 month after treatment): 5.92
- change of total angina pectoris score, Md [1]: 0.00
- change of total angina pectoris score, Mean [1]: −1.19
- patients with change of dose of nitroglycerin score 0 (%) [1]: (80.53%)
- patients with change of dose of nitroglycerin score 1 (%) [1]: (0.17%)
- patients with change of dose of nitroglycerin score 2 (%) [1]: (3.92%)
- patients with change of dose of nitroglycerin score 4 (%) [1]: (1.04%)
- patients with change of dose of nitroglycerin score 6 (%) [1]: (0.23%)
- patients with change of dose of nitroglycerin score −1 (%) [1]: (0.00%)
- patients with change of dose of nitroglycerin score −2 (%) [1]: (11.41%)
- patients with change of dose of nitroglycerin score −3 (%) [1]: (0.06%)
- patients with change of dose of nitroglycerin score −4 (%) [1]: (2.13%)
- patients with change of dose of nitroglycerin score −6 (%) [1]: (0.52%)
- distribution of total angina pectoris score: Medium, number of patients (3 months after treatment): 397
- distribution of total angina pectoris score: Medium, percentage of patients (3 months after treatment): (23.97%)
- distribution of total angina pectoris score: Mild, number of patients (3 months after treatment): 1241
- distribution of total angina pectoris score: Mild, percentage of patients (3 months after treatment): (74.94%)
- distribution of total angina pectoris score: Severe, number of patients (3 months after treatment): 18
- distribution of total angina pectoris score: Severe, percentage of patients (3 months after treatment): (1.09%)
- patients with dose of nitroglycerin score 0 (%) (3 months after treatment): (61.98%)
- patients with dose of nitroglycerin score 1 (%) (3 months after treatment): (0.63%)
- patients with dose of nitroglycerin score 2 (%) (3 months after treatment): (29.58%)
- patients with dose of nitroglycerin score 4 (%) (3 months after treatment): (5.23%)
- patients with dose of nitroglycerin score 6 (%) (3 months after treatment): (2.58%)
- total angina pectoris score, Md (3 months after treatment): 6.00
- total angina pectoris score, Mean (3 months after treatment): 5.38
- change of total angina pectoris score, Md [2]: 0.00
- change of total angina pectoris score, Mean [2]: −1.73
- patients with change of dose of nitroglycerin score 0 (%) [2]: (75.23%)
- patients with change of dose of nitroglycerin score 1 (%) [2]: (0.17%)
- patients with change of dose of nitroglycerin score 2 (%) [2]: (4.44%)
- patients with change of dose of nitroglycerin score 4 (%) [2]: (0.69%)
- patients with change of dose of nitroglycerin score 6 (%) [2]: (0.29%)
- patients with change of dose of nitroglycerin score −1 (%) [2]: (0.29%)
- patients with change of dose of nitroglycerin score −2 (%) [2]: (15.15%)
- patients with change of dose of nitroglycerin score −4 (%) [2]: (2.94%)
- patients with change of dose of nitroglycerin score −5 (%) [2]: (0.12%)
- patients with change of dose of nitroglycerin score −6 (%) [2]: (0.69%)
- distribution of total angina pectoris score: Medium, number of patients (6 months after treatment): 309
- distribution of total angina pectoris score: Medium, percentage of patients (6 months after treatment): (19.43%)
- distribution of total angina pectoris score: Mild, number of patients (6 months after treatment): 1273
- distribution of total angina pectoris score: Mild, percentage of patients (6 months after treatment): (80.06%)
- distribution of total angina pectoris score: Severe, number of patients (6 months after treatment): 8
- distribution of total angina pectoris score: Severe, percentage of patients (6 months after treatment): (0.50%)
- patients with dose of nitroglycerin score 0 (%) (6 months after treatment): (65.38%)
- patients with dose of nitroglycerin score 1 (%) (6 months after treatment): (0.86%)
- patients with dose of nitroglycerin score 2 (%) (6 months after treatment): (28.24%)
- patients with dose of nitroglycerin score 4 (%) (6 months after treatment): (3.62%)
- patients with dose of nitroglycerin score 6 (%) (6 months after treatment): (1.89%)
- total angina pectoris score, Md (6 months after treatment): 5.00
- total angina pectoris score, Mean (6 months after treatment): 4.78
- change of total angina pectoris score, Md [3]: 0.00
- change of total angina pectoris score, Mean [3]: −2.34
- patients with change of dose of nitroglycerin score 0 (%) [3]: (70.05%)
- patients with change of dose of nitroglycerin score 1 (%) [3]: (0.40%)
- patients with change of dose of nitroglycerin score 2 (%) [3]: (4.84%)
- patients with change of dose of nitroglycerin score 4 (%) [3]: (0.40%)
- patients with change of dose of nitroglycerin score 6 (%) [3]: (0.35%)
- patients with change of dose of nitroglycerin score −1 (%) [3]: (0.23%)
- patients with change of dose of nitroglycerin score −2 (%) [3]: (18.49%)
- patients with change of dose of nitroglycerin score −3 (%) [3]: (0.00%)
- patients with change of dose of nitroglycerin score −4 (%) [3]: (4.03%)
- patients with change of dose of nitroglycerin score −5 (%) [3]: (0.17%)
- patients with change of dose of nitroglycerin score −6 (%) [3]: (1.04%)
- distribution of total angina pectoris score: Medium, number of patients (9 months after treatment): 244
- distribution of total angina pectoris score: Medium, percentage of patients (9 months after treatment): (15.97%)
- distribution of total angina pectoris score: Mild, number of patients (9 months after treatment): 1280
- distribution of total angina pectoris score: Mild, percentage of patients (9 months after treatment): (83.77%)
- distribution of total angina pectoris score: Severe, number of patients (9 months after treatment): 4
- distribution of total angina pectoris score: Severe, percentage of patients (9 months after treatment): (0.26%)
- patients with dose of nitroglycerin score 0 (%) (9 months after treatment): (67.11%)
- patients with dose of nitroglycerin score 1 (%) (9 months after treatment): (1.03%)
- patients with dose of nitroglycerin score 2 (%) (9 months after treatment): (27.73%)
- patients with dose of nitroglycerin score 4 (%) (9 months after treatment): (2.41%)
- patients with dose of nitroglycerin score 6 (%) (9 months after treatment): (1.72%)
- total angina pectoris score, Md (9 months after treatment): 5.00
- total angina pectoris score, Mean (9 months after treatment): 4.39
- change of total angina pectoris score, Md [4]: −1.00
- change of total angina pectoris score, Mean [4]: −2.72
- patients with change of dose of nitroglycerin score 0 (%) [4]: (67.45%)
- patients with change of dose of nitroglycerin score 1 (%) [4]: (0.35%)
- patients with change of dose of nitroglycerin score 2 (%) [4]: (4.84%)
- patients with change of dose of nitroglycerin score 4 (%) [4]: (0.46%)
- patients with change of dose of nitroglycerin score 6 (%) [4]: (0.35%)
- patients with change of dose of nitroglycerin score −1 (%) [4]: (0.46%)
- patients with change of dose of nitroglycerin score −2 (%) [4]: (20.16%)
- patients with change of dose of nitroglycerin score −3 (%) [4]: (0.12%)
- patients with change of dose of nitroglycerin score −4 (%) [4]: (4.26%)
- patients with change of dose of nitroglycerin score −5 (%) [4]: (0.17%)
- patients with change of dose of nitroglycerin score −6 (%) [4]: (1.38%)
- distribution of total angina pectoris score: Medium, number of patients (12 months after treatment): 176
- distribution of total angina pectoris score: Medium, percentage of patients (12 months after treatment): (11.96%)
- distribution of total angina pectoris score: Mild, number of patients (12 months after treatment): 1294
- distribution of total angina pectoris score: Mild, percentage of patients (12 months after treatment): (87.91%)
- distribution of total angina pectoris score: Severe, number of patients (12 months after treatment): 2
- distribution of total angina pectoris score: Severe, percentage of patients (12 months after treatment): (0.14%)
- patients with dose of nitroglycerin score 0 (%) (12 months after treatment): (71.58%)
- patients with dose of nitroglycerin score 1 (%) (12 months after treatment): (1.09%)
- patients with dose of nitroglycerin score 2 (%) (12 months after treatment): (23.59%)
- patients with dose of nitroglycerin score 4 (%) (12 months after treatment): (2.07%)
- patients with dose of nitroglycerin score 6 (%) (12 months after treatment): (1.66%)
- total angina pectoris score, Md (12 months after treatment): 0.00
- total angina pectoris score, Mean (12 months after treatment): 3.83
